Laboratory results from ChEMBL document CHEMBL3297728, “Synthesis and antituberculosis activity of novel 5-styryl-4-(hetero)aryl-pyrimidines via combination of the Pd-catalyzed Suzuki cross-coupling and S(N)(H) reactions” (Bioorg Med Chem Lett, 2014).
≈ marks a conversion by molar mass, not a printed value.

What follows are compounds tested on Mycobacterium tuberculosis (assay: Antimycobacterial activity against rifampin- and Isoniazid- resistant Mycobacterium tuberculosis Beijing harboring Ser 531-Leu 315 rpoB mutant and Ser-Thr katG mutant after 10 days by microbroth dilution method).
Type: functional
Work on Brc1cncnc1-c1cccs1 yielded an MIC of 0.7 µg/mL (≈ 2.9 µM). With Brc1cncnc1-c1ccco1 the MIC was 1.5 µg/mL (≈ 6.67 µM). C(=C\c1cncnc1-c1ccc(-c2cccs2)s1)/c1ccc(-c2ccccc2)cc1 gave an MIC of 1.5 µg/mL (≈ 3.55 µM).
